Measured values taken from PMC4773385, “Drug design from the cryptic inhibitor envelope” (Nature Communications, 2016).
Converted amounts (≈) assume the structure as drawn. Like-named read-outs stand apart in the source and are kept apart here.

Tests used:
[1] = test system: Escherichia coli W3110; test: MIC assay; type: cell-based; conditions: for MIC: E. coli
[2] = test system: Salmonella typhimurium LT2; test: MIC assay; type: cell-based
[3] = test system: Vibrio cholerae P4 (P27459DctxAB::KmR, SmR); test: MIC assay; type: cell-based; set-up: MIC: unit not given here
[4] = test system: Klebsiella pneumoniae 10031; test: MIC assay; type: cell-based; set-up: MIC: unit not given here
[5] = test system: Enterobacter cloacae; test: MIC assay; type: cell-based; set-up: MIC: unit not given here
[6] = test system: Morganella morganii; test: MIC assay; type: cell-based
[7] = test system: Proteus mirabilis; test: MIC assay; type: cell-based; set-up: MIC: unit not given here
[8] = molecular target: T1, Escherichia coli LpxC (Escherichia coli, UniProt P0A725); test: LpxC enzymatic assay (radiolabelled substrate, slow tight-binding kinetics); type: biochemical
T1 sequence (P0A725 1-305): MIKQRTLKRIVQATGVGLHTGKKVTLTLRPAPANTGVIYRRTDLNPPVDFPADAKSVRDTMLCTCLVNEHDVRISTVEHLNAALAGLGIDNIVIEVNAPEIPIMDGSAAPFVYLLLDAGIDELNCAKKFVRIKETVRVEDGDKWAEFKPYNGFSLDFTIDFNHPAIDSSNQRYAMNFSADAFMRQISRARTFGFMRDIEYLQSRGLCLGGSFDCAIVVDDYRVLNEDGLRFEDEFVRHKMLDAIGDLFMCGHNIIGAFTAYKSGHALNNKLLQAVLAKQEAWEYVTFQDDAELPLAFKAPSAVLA
Protocol: The radiolabelled substrate for the LpxC enzymatic assays, [α-^32P] UDP-3-O-[(R)-3-hydroxymyristoyl]-N-acetylglucosamine, and the unlabelled carrier substrate were prepared as previously described. […] Serial twofold dilutions of each inhibitor were prepared in DMSO and added to the reaction mixture with a 10-fold dilution. The assays were initiated by addition of purified LpxC protein into the reaction mix with 1:4 dilution to the final concentration as specified.
The KM value was determined by varying substrate concentrations from 0.4 to 50 μM with 0.2 nM of LpxC. To study the slow, tight-binding inhibition, LpxC activity was assessed in the presence of varying inhibitor concentrations. […] The following time-dependent equation was used to fit the data: […]
The Ki* was determined by analysing the rate of product accumulation after formation of the stable EI* complex. […] The Morrison's quadratic equation was used to fit the fractional activity data to determine Ki^*app:
where [E]T and [I]T represent the total enzyme and inhibitor concentrations, respectively. The inhibition constant Ki* is converted from Ki^*app according to the following relationship:
For two-step slow-binding inhibition, kinetic parameters k5, k6 and Ki were extracted from curve fitting of experimental kobs values to inhibitor concentrations based on equations (5 and 6).

[9] = test system: Pseudomonas aeruginosa PAO1; test: MIC assay; type: cell-based
[10] = test system: Chlamydia trachomatis; test: Minimal chlamydiacidal concentration (MCC); type: cell-based; set-up: Minimal chlamydiacidal concentration (MCC), listed in MIC column: unit not given here
[11] = test system: Acinetobacter baumannii 17978; test: MIC assay; type: cell-based
[12] = E. coli LpxC, 20 pM enzyme, 5 μM substrate, 30 °C, Morrison fit, read-out: Ki* (inhibition constant of the stable EI* complex)
[13] = fit of kobs vs inhibitor concentration, 30 μM substrate, 0.1 nM enzyme

C[C@@H](O)[C@H](NC(=O)c1ccc(C#CC#Cc2ccc(N)cc2)cc1)C(=O)NO [LPC-011]
MIC [1]: 0.04 µg/mL (≈ 0.106 µM) | MIC [2]: 0.06 µg/mL (≈ 0.159 µM) | MIC [3]: 0.063 | MIC [4]: 0.01 | MIC [5]: 0.052 | MIC [6]: 0.039 g/mL | MIC [7]: 0.13

CC(C)(N)[C@H](NC(=O)c1ccc(C#CC#Cc2ccc(N)cc2)cc1)C(=O)NO [LPC-040]
Ki [8, 12]: 0.012 ± 0.001 nM

C[C@](O)([C@H](NC(=O)c1ccc(C#CC#Cc2ccc(N)cc2)cc1)C(=O)NO)C(F)(F)F [LPC-083]
compromised inhibitory effect (Ki*) over parent compound LPC-037 ([8]; E. coli LpxC): ninefold | inhibition constant worse than LPC-011 ([8]; E. coli LpxC): fivefold | Ki [8, 12]: 0.125 ± 0.004 nM | MIC [1]: 0.1 µg/mL (≈ 0.225 µM)

CC(C)(O)[C@H](NC(=O)c1ccc(C#CC#Cc2ccc(N)cc2)cc1)C(=O)NO [LPC-037]
Ki [8, 12]: 0.014 ± 0.001 nM

C[C@@](O)(C(F)F)[C@H](NC(=O)c1ccc(C#CC#Cc2ccc(N)cc2)cc1)C(=O)NO [LPC-058]
enhancement of potency (Ki*) over CHIR-090 ([8]; E. coli LpxC): 44 fold | enhancement of potency (Ki*) over LPC-011 ([8]; E. coli LpxC): 7 fold | Ki [8, 12]: 0.0035 ± 0.0002 nM | k5 (forward rate from EI to EI*) [8, 13]: 0.39 ± 0.02 min⁻¹ | k6 (reverse rate from EI* to EI) [8, 13]: 0.0014 ± 0.0001 min⁻¹ | Ki ([8]; fit of kobs vs inhibitor concentration, 30 μM substrate, 0.1 nM enzyme, Ki* constrained, read-out: Ki (inhibition constant of the initial encounter complex EI)): 0.973 ± 0.128 nM | Enhancement (MIC CHIR-090/MIC LPC-058) ([1]; Escherichia coli W3110): 7.2 | Enhancement (MIC LPC-011/MIC LPC-058) ([1]; Escherichia coli W3110): 2.2 | Enhancement (MIC CHIR-090/MIC LPC-058) [9]: 5.0 | Enhancement (MIC LPC-011/MIC LPC-058) [9]: 2.0 | MIC [9]: 0.167 µg/mL (≈ 0.391 µM) | Enhancement (MIC CHIR-090/MIC LPC-058) [2]: 12 | Enhancement (MIC LPC-011/MIC LPC-058) [2]: 2.8 | MIC [2]: 0.021 µg/mL (≈ 0.0491 µM) | Enhancement (MIC CHIR-090/MIC LPC-058) [3]: 31 | Enhancement (MIC LPC-011/MIC LPC-058) [3]: 3.9 | MIC [3]: 0.016 | Enhancement (MIC CHIR-090/MIC LPC-058) [4]: 13 | Enhancement (MIC LPC-011/MIC LPC-058) [4]: 3.8 | MIC [4]: 0.0026 | Enhancement (MIC CHIR-090/MIC LPC-058) [5]: 12 | Enhancement (MIC LPC-011/MIC LPC-058) [5]: 2.0 | MIC [5]: 0.026 | Enhancement (MIC CHIR-090/MIC LPC-058) [6]: 55 | Enhancement (MIC LPC-011/MIC LPC-058) [6]: 2.0 | MIC [6]: 0.019 g/mL | Enhancement (MIC CHIR-090/MIC LPC-058) [7]: 32 | Enhancement (MIC LPC-011/MIC LPC-058) [7]: 5.0 | MIC [7]: 0.026 | Minimal chlamydiacidal concentration (MCC), listed in MIC column [10]: 0.08 | Enhancement (MIC CHIR-090/MIC LPC-058) ([10]; MCC): 100 | Enhancement (MIC LPC-011/MIC LPC-058) ([10]; MCC): 6.0 | MIC ([11]; Acinetobacter baumannii): 0.39 µg/mL (≈ 0.912 µM) | Enhancement (MIC CHIR-090/MIC LPC-058) ([11]; Acinetobacter baumannii 17978): > 128 | Enhancement (MIC LPC-011/MIC LPC-058) ([11]; Acinetobacter baumannii 17978): 25
